Legend:
[1] = test system: Fusarium graminearum (strain 4528); conditions: cited from earlier work
Fusarium graminearum = conditions: in vivo; cited from earlier work
Fusarium fungi [2] = test: Field trial, winter wheat "Slade", Ulhówek (Poland) 2004: natural Fusarium ear infection, DON and ZEA content of grains (HPLC/MS), grain yield; assay type: in vivo; conditions: for ZEA content of the grains / Infection (ears infected by Fusarium fungi) / Grain yield: dose prohexadione-Ca 50, metconazole 90; for ZEA content of the grains: relative to untreated = 100% (0.073 mg per kg of harvested grains); for Infection (ears infected by Fusarium fungi): relative to untreated = 100% (4.5% of the ears infected), assessed Jul. 22, 2004; for Grain yield: relative to untreated = 100% (8.6 t/ha)
mildew = conditions: pre-treatment; cited from earlier work
Fusarium fungi [3] = test: Field trial, winter wheat "Ritmo", Gronau 2004: natural Fusarium ear infection, DON and NIV content of grains (HPLC/MS), grain yield; assay type: in vivo

Compound: COc1ccc(C(O)(c2cncnc2)C2CC2)cc1 (centres unmarked) [ancymidole]
- Inhibition of mycelium growth [1]: only weakly
- Inhibition of the formation of 3-acetyldeoxynivalenol (3-ADON) [1]: only weakly

Compound: C[N+](C)(C)CCCl.[Cl-] [chlormequat chloride, 2-chloroethyltrimethylammonium chloride]
- Effect on the susceptibility of wheat ears to infection with Fusarium graminearum (Fusarium graminearum): no direct effect

Compound: CC(C)C(O)(c1ccc(OC(F)(F)F)cc1)c1cncnc1 (centres unmarked) [flurprimidole]
- Inhibition of mycelium growth [1]: only weakly
- Inhibition of the formation of 3-acetyldeoxynivalenol (3-ADON) [1]: only weakly

Compound: CC1(C)CCC(Cc2ccc(Cl)cc2)C1(O)Cn1cncn1 (centres unmarked) [metconazole, reference compound]
- ZEA content of the grains (Fusarium fungi [2]; treatment date 10.6.): 53%
- Infection (ears infected by Fusarium fungi) (Fusarium fungi [2]; treatment date 10.6.): 18%
- Grain yield (Fusarium fungi [2]; treatment date 10.6.): 108%
- ZEA content of the grains (Fusarium fungi [2]; treatment date 19.6.): 33%
- Infection (ears infected by Fusarium fungi) (Fusarium fungi [2]; treatment date 19.6.): 18%
- Grain yield (Fusarium fungi [2]; treatment date 19.6.): 110%

Compound: prohexadione-calcium
- Reduction of infection of wheat with mildew (mildew): cannot be reduced
- Content of the grains of NIV (Fusarium fungi [3]; in vivo): 75%
- Content of the grains of DON (Fusarium fungi [3]; relative to untreated = 100% (22.4 mg of DON per kg of harvested grains), 50 g/ha, Jun. 7, 2004): 81%
- Grain yield (Fusarium fungi [3]; relative to untreated = 100% (2.9 t/ha), 50 g/ha, Jun. 7, 2004): 109%
- Infection (ears infected by Fusarium fungi) (Fusarium fungi [3]; relative to untreated = 100% (43.8% of the ears infected), 50 g/ha applied Jun. 7, 2004 at beginning of flowering, assessed Jun. 28, 2004): 91%
- ZEA content of the grains (Fusarium fungi [2]; treatment date 10.6.): 23%
- Infection (ears infected by Fusarium fungi) (Fusarium fungi [2]; treatment date 10.6.): 78%
- Grain yield (Fusarium fungi [2]; treatment date 10.6.): 98%
- ZEA content of the grains (Fusarium fungi [2]; treatment date 19.6.): 32%
- Infection (ears infected by Fusarium fungi) (Fusarium fungi [2]; treatment date 19.6.): 51%
- Grain yield (Fusarium fungi [2]; treatment date 19.6.): 105%
- DON content of the grains (statement in words) (Fusarium fungi [2]; winter wheat Slade, Ulhówek 2004, no DON figures printed): reduces the DON and ZEA contents considerably

From US20090131519A1 (priority 2005, published 2009)
